Data taken from EP0070084A2, “Imidazoline derivatives” (BEECHAM GROUP PLC, priority 1981, dated 1983).
Where a name gives a salt, the structure may show the parent alone. Read-outs that look alike come from different tables or passages of the source.

What was measured:
piglets = format: in vivo; conditions: groups of 2 piglets; for MEAN SCOUR SCORE ± SEM: score 0-3
neonatal mice = assay: Sedative activity, observation of orally dosed mice; format: in vivo; conditions: 6 neonatal mice, at 1 mg/kg and at 10 mg/kg, observed for 2 hours versus control mice
Protocol: m-amino Clonidine was administered orally to 6 neonatal mice at 1 mg/kg and at 10 mg/kgwhichwere observed for 2 hours in comparison with control mice.

[1] = 0.1 mg/kg p.o., duration of test 6 h
[2] = 0.1 mg/kg p.o., duration of test 12 h
[3] = 0.2 mg/kg p.o., duration of test 6 h

SMILES | o/o INHIBITION OF SCOUR (piglets; [1]) | MEAN SCOUR SCORE ± SEM (piglets; [1]) | o/o INHIBITION OF SCOUR (piglets; [2]) | MEAN SCOUR SCORE ± SEM (piglets; [2]) | o/o INHIBITION OF SCOUR (piglets; [3]) | MEAN SCOUR SCORE ± SEM (piglets; [3]) | MEAN SCOUR SCORE ± SEM (piglets; 0.2 mg/kg p.o., duration of test 12 h) | o/o INHIBITION OF SCOUR (piglets; 0.2 mg/kg p.o., duration of test 12 h, P 0.05) | MEAN SCOUR SCORE ± SEM (piglets; 1 mg/kg p.o., duration of test 6 h) | o/o INHIBITION OF SCOUR (piglets; 1 mg/kg p.o., duration of test 6 h, P 0.01) | MEAN SCOUR SCORE ± SEM (piglets; 1 mg/kg p.o., duration of test 12 h) | o/o INHIBITION OF SCOUR (piglets; 1 mg/kg p.o., duration of test 12 h, P 0.05) | sedation (neonatal mice)
Clc1cc(NCc2ccccc2)cc(Cl)c1N=C1NCCN1 [Example 4, 2-(4-Eenzylamino-2,6-dichlorophenylimino)imidazolidine_ hydrochloride] | 15 o/o | 2.3 ± 0.5 | 10 o/o | 1.9 ± 0.2 | 41 o/o | 1.6 ± 0.1 | 1.2 ± 0.2 | 43 o/o | 0.4 ± 0.4 | 85 o/o | 1.1 ± 0.2 | 48 o/o | –
Nc1ccc(Cl)c(N=C2NCCN2)c1Cl [Example 3, 2-(3-amino-2,6-dichlorophenylimino) imidazolidine] | – | – | – | – | – | – | – | – | – | – | – | – | marked sedation
